{"source": "paper PMC4657912", "about": "“Purification and Characterization of a Novel NAD(P)^+-Farnesol Dehydrogenase from Polygonum minus Leaves” (PLoS ONE, 2015)", "key": {"[1]": {"test_system": "T1, P. minus farnesol dehydrogenase; NAD(P)+-dependent farnesol dehydrogenase", "T1 construct": "native, purified from leaves; gene not cloned", "test": "NADH formation at […] nm, Lineweaver-Burk", "format": "biochemical, Persicaria minor", "conditions": "100 mM glycine-NaOH pH 9.5, 35 C, read-out: K m value"}, "[2]": {"test_system": "T1, P. minus farnesol dehydrogenase; NAD(P)+-dependent farnesol dehydrogenase", "test": "NADPH formation at […] nm, Lineweaver-Burk", "format": "biochemical, Persicaria minor", "conditions": "1.0 mM trans,trans-farnesol (standard assay), 100 mM glycine-NaOH pH 9.5, 35 C; substrate range stated 0.5-1.5 mM, extrapolated; read-out: K m value"}, "[3]": {"conditions": "1.0 mM NAD+ (standard assay), oxidation"}}}
{"smiles": "C=C(C)[C@@H]1CC=C(CO)CC1", "note": "[(S)-Perillyl alcohol]", "values": [{"measurement": "Km", "setting": "[1]; [3]", "result": 770, "unit": "µM"}]}
{"smiles": "C=C(C)C1CC=C(C)C(O)C1", "note": "(stereo not shown) [Carveol]", "values": [{"measurement": "Km", "setting": "[1]; [3]", "result": 710, "unit": "µM"}]}
{"smiles": "OC/C=C/c1ccccc1", "note": "[Cinnamyl alcohol]", "values": [{"measurement": "Km", "setting": "[1]; [3]", "result": 1040, "unit": "µM"}]}
{"smiles": "CC(C)=CCC/C(C)=C\\CC/C(C)=C\\CO", "note": "[Cis, cis-farnesol]", "values": [{"measurement": "Km", "setting": "[1]; [3]", "result": 420, "unit": "µM"}]}
{"smiles": "CC(C)=CCC/C(C)=C/CC/C(C)=C\\CO", "note": "[Cis, trans-farnesol]", "values": [{"measurement": "Km", "setting": "[1]; [3]", "result": 330, "unit": "µM"}]}
{"smiles": "CC(C)=CCC/C(C)=C/CO", "note": "[Geraniol, (trans)-3,7-dimethyl-2,6-octadien-1-ol]", "values": [{"measurement": "Km", "setting": "[1]; 1.0 mM NAD+ (standard assay), oxidation, substrate range 0.5-1.5 mM, extrapolated", "result": 12500, "unit": "µM"}]}
{"smiles": "NC(=O)c1ccc[n+]([C@@H]2O[C@H](COP(=O)(O)OP(=O)(O)OC[C@H]3O[C@@H](n4cnc5c(N)ncnc54)[C@H](OP(=O)(O)O)[C@@H]3O)[C@@H](O)[C@H]2O)c1", "note": "[NADP^+]", "values": [{"measurement": "Km", "setting": "[2]", "result": 40000, "unit": "µM"}]}
{"smiles": "NC(=O)c1ccc[n+]([C@@H]2O[C@H](COP(=O)(O)OP(=O)(O)OC[C@H]3O[C@@H](n4cnc5c(N)ncnc54)[C@H](O)[C@@H]3O)[C@@H](O)[C@H]2O)c1", "note": "[NAD^+]", "values": [{"measurement": "Km", "setting": "[1]; 1.0 mM trans,trans-farnesol (standard assay)", "result": 740, "unit": "µM"}]}
{"smiles": "CC(C)=CCC/C(C)=C/CC/C(C)=C/CO", "note": "[Trans, trans-farnesol, trans,trans-3,7,11-trimethyl-2,6,10-dodecatrien-1-ol]", "values": [{"measurement": "Km", "setting": "[1]; [3]", "result": 170, "unit": "µM"}]}
{"smiles": "C=CC(C)(O)CCC=C(C)CCC=C(C)C", "note": "(stereo not shown) [nerolidol]", "values": [{"measurement": "Km", "setting": "[1]; [3]", "result": 1000, "unit": "µM"}]}
